Test results: PMC5965259 (Journal of medicinal chemistry, 2018)

system: bloodstream form T. brucei Lister 427; assay: ATP–bioluminescence-based bloodstream form T. brucei cell viability assay; details: Trypanosoma brucei, 48 h, read-out: Tb427 EC50

`Nc1nc(Cl)cc(Nc2cc(Cl)cc(Cl)c2)n1` [Compound 13] and `Nc1nc(Nc2cc(Cl)cc(Cl)c2)cc(C(F)(F)F)n1` [Compound 14] are within 1.5-fold of each other in EC50: 8.9 µM for the first, 10 µM for the second.

First: Nc1nccc(Nc2cc(Cl)cc(Cl)c2)n1 [Compound 8]
Second: Nc1ccnc(Nc2cc(Cl)cc(Cl)c2)c1 [Compound 18, N^2-(3,5-Dichlorophenyl)pyridine-2,4-diamine]
The EC50 of the first is 3.8-fold lower: 9.9 µM for the first, 38 µM for the second. The first is the more potent here.

First: Cc1cc(Nc2cc(Cl)cc(Cl)c2)ncn1 [Compound 23, N-(3,5-Dichlorophenyl)-6-methylpyrimidin-4-amine]
Second: Cc1cc(Nc2cc(Cl)cc(-c3ccc(Cl)cc3)c2)nc(N)n1 [Compound 92, N^4-(4′,5-Dichloro-[1,1′-biphenyl]-3-yl)-6-methylpyrimidine-2,4-diamine]
The EC50 of the first is 12-fold higher: 27 µM for the first, 2.2 µM for the second. The second is the more potent here.

`Cc1cc(Nc2cc(Cl)cc(-c3cc4ccccc4c4ccccc34)c2)nc(N)n1` [Compound 108, N^4-(3-Chloro-5-(phenanthren-9-yl)phenyl)-6-methylpyrimidine-2,4-diamine] and `Cc1cc(Nc2cc(Cl)cc(-c3ccc(C(F)(F)F)cc3)c2)nc(N)n1` [Compound 95, N^4-(5-Chloro-4′-(trifluoromethyl)-[1,1′-biphenyl]-3-yl)-6-methylpyrimidine-2,4-diamine] are within 1.5-fold of each other in EC50: 1.8 µM for the first, 2 µM for the second.

`Cc1cc(Nc2cc(Cl)c(OC(F)F)c(Cl)c2)nc(N)n1` [Compound 68, N^4-(3,5-Dichloro-4-(difluoromethoxy)phenyl)-6-methylpyrimidine-2,4-diamine] and `Cc1cc(Nc2cc(Cl)c(C)c(Cl)c2)nc(N)n1` [Compound 65, N^4-(3,5-Dichloro-4-methylphenyl)-6-methylpyrimidine-2,4-diamine] are within 1.5-fold of each other in EC50: 4.5 µM for the first, 4.4 µM for the second.

`CCOc1cc(Br)cc(Nc2cc(C)nc(N)n2)c1` [Compound 39, N^4-(3-Bromo-5-ethoxyphenyl)-6-methylpyrimidine-2,4-diamine] and `C=CCOc1cc(Br)cc(Nc2cc(C)nc(N)n2)c1` [Compound 41, N^4-(3-(Allyloxy)-5-bromophenyl)-6-methylpyrimidine-2,4-diamine] are the same in EC50: 4.4 µM for the first, 4.4 µM for the second.

Going from `Cc1cc(Nc2cc(Cl)c(N3CCOCC3)c(Cl)c2)nc(N)n1` [Compound 70, N^4-(3,5-Dichloro-4-morpholinophenyl)-6-methylpyrimidine-2,4-diamine] to `Cc1cc(Nc2cc(Cl)c(Oc3ccccc3)c(Cl)c2)nc(N)n1` [Compound 66, N^4-(3,5-Dichloro-4-phenoxyphenyl)-6-methylpyrimidine-2,4-diamine], the EC50 falls from 18 µM to 1.1 µM (16-fold). The second is the more potent here.

First: Cc1cc(Nc2cc(Cl)cc(-c3cncnc3)c2)nc(N)n1 [Compound 117, N^4-(3-Chloro-5-(pyrimidin-5-yl)phenyl)-6-methylpyrimidine-2,4-diamine]
Second: CC(=O)c1ccc(-c2cc(Cl)cc(Nc3cc(C)nc(N)n3)c2)cc1 [Compound 97, 1-(3′-((2-Amino-6-methylpyrimidin-4-yl)amino)-5′-chloro-[1,1′-biphenyl]-4-yl)ethan-1-one]
The EC50 of the first is 8.7-fold higher: 58 µM for the first, 6.7 µM for the second.

`Cc1cc(N(C)c2cc(Cl)cc(Cl)c2)nc(N)n1` [Compound 28, N^4-(3,5-Dichlorophenyl)-N^4,6-dimethylpyrimidine-2,4-diamine] and `Cc1cc(Nc2ccc(Cl)cc2C)nc(N)n1` [Compound 82] cannot be ordered by EC50: 38 µM for the first, over 25 µM for the second.

Going from `Cc1cc(Nc2ccccc2C)nc(N)n1` [Compound 77] to `Cc1cc(Nc2ccc(C(F)(F)F)cc2)nc(N)n1` [Compound 88], the EC50 falls from over 25 µM to 15 µM.

In the case of `COC(=O)c1cc(Nc2cc(C)nc(N)n2)cc(C(=O)OC)c1` [Compound 49, Dimethyl 5-((2-amino-6-methylpyrimidin-4-yl)amino)isophthalate], the EC50 is reported as 42 µM.

system: prozyme protein levels in T. brucei cells; assay: Western blot analysis of prozyme levels in treated T. brucei cells; format: cell-based; details: 24 h treatment at 1.5 × EC50

With `Nc1nc(Cl)cc(Nc2cc(Cl)cc(Cl)c2)n1` [Compound 13] the “prozyme protein level vs vehicle-only control” value was “vehicle-only levels of the prozyme protein”.
`Nc1nccc(Nc2cc(Cl)cc(Cl)c2)n1` [Compound 8] was tested, and the “prozyme protein level vs vehicle-only control” value was “induced prozyme above the vehicle-only control levels”.
`Cc1cc(Nc2cc(Cl)cc(Cl)c2)ncn1` [Compound 23, N-(3,5-Dichlorophenyl)-6-methylpyrimidin-4-amine] was tested, and the “prozyme protein level vs vehicle-only control” value was “vehicle-only levels of the prozyme protein”.
